# Experimental data reported in US20220361496A1, “HERBICIDE COMPOSITIONS” (UPL CORPORATION LIMITED, priority 2019, published 2022).
# Key:
# Assay type in all cases: in vivo
# [1] = tested on: Brachiaria plantaginea; assay: Pre-emergence herbicidal efficacy, % control of Brachiaria plantaginea; conditions: for % Control 35 DAA Brachiaria plantaginea: 35 DAA (Table 3)
# Protocol: (§1) Experiments were carried out evaluate the efficacy, selectivity and synergism of propisochlor combinations when applied at soybean pre-emergence.
# (§2) The evaluation for the damage on undesired weeds caused by the compositions was carried out using a scale from 0 to 100%, compared to the untreated control plants. Here, 0 means no damage and 100 means complete destruction of the plants.
# (§3) The tables 1 below relate to the herbicidal activity, of the individual actives and the combinations applied in pre-emergence application at 35 days after administration (DAA) treatment.
# [2] = tested on: Ipomoea hederifolia; assay: Pre-emergence herbicidal efficacy, % weed control of Ipomoea hederifolia
# Protocol: as §1, §2, §3
# [3] = tested on: Spermacoce verticillata; assay: Pre-emergence herbicidal efficacy, % weed control of Spermacoce verticillata
# Protocol: as §1, §2, §3
# [4] = tested on: Cenchrus echinatus; assay: Pre-emergence herbicidal efficacy, % control of Cenchrus echinatus
# Protocol: as §1, §2
# [5] = tested on: Brachiaria decumbens; assay: Pre-emergence herbicidal efficacy, % control of Brachiaria decumbens
# Protocol: as §1, §2
# [6] = tested on: Ipomoea grandifolia; assay: Pre-emergence herbicidal efficacy, % control of Ipomoea grandifolia
# Protocol: as §1, §2
compound,measurement,setting,value
CCOc1nc(F)cc2nc(S(=O)(=O)Nc3c(Cl)cccc3Cl)nn12 [Diclosulam],% Control of Brachiaria plantaginea 35 DAA,[1]; 20 g ai/ha,50.0%
Cc1nn(-c2cc(NS(C)(=O)=O)c(Cl)cc2Cl)c(=O)n1C(F)F [Sulfentrazone],% Weed control 35 DAA Ipomoea hederifolia,[2]; 75 g ai/ha,98.00%
same,% Weed control 35 DAA Spermacoce verticillata,[3]; 75 g ai/ha,92.25%
same,% Control 35 DAA Brachiaria plantaginea,[1]; 150 g ai/ha,65.00%
CC(C)C1(C)N=C(c2ncccc2C(=O)O)NC1=O (stereo not drawn) [imazapyr],% Control - Cenchrus echinatus 7 DAA,[4]; 26.6 g ai/ha,3.8%
same,% Control - Cenchrus echinatus 28 DAA,[4]; 26.6 g ai/ha,0.0%
same,% Control - Cenchrus echinatus 35 DAA,[4]; 26.6 g ai/ha,0.0%
same,% Control of Brachiaria decumbens 7 DAA,[5]; 26.6 g ai/ha,30%
same,% Control of Brachiaria decumbens 14 DAA,[5]; 26.6 g ai/ha,12.5%
same,% Control of Brachiaria decumbens 21 DAA,[5]; 26.6 g ai/ha,6.3%
same,% Control of Brachiaria decumbens 28 DAA,[5]; 26.6 g ai/ha,2.5%
same,% Control of Ipomoea grandifolia 7 DAA,[6]; 66.6 g ai/ha,16.3%
same,% Control of Ipomoea grandifolia 14 DAA,[6]; 66.6 g ai/ha,30.0%
same,% Control of Ipomoea grandifolia 21 DAA,[6]; 66.6 g ai/ha,51.3%
same,% Control of Ipomoea grandifolia 28 DAA,[6]; 66.6 g ai/ha,62.5%
same,% Control of Ipomoea grandifolia 35 DAA,[6]; 66.6 g ai/ha,63.8%
CC(C)C1(C)N=C(c2nc3ccccc3cc2C(=O)O)NC1=O (stereo not drawn) [imazaquin],% Control - Cenchrus echinatus 7 DAA,[4]; 80.5 g ai/ha,18.8%
same,% Control - Cenchrus echinatus 28 DAA,[4]; 80.5 g ai/ha,10.0%
same,% Control - Cenchrus echinatus 35 DAA,[4]; 80.5 g ai/ha,6.3%
same,% Control of Brachiaria decumbens 7 DAA,[5]; 80.5 g ai/ha,30%
same,% Control of Brachiaria decumbens 14 DAA,[5]; 80.5 g ai/ha,22.5%
same,% Control of Brachiaria decumbens 21 DAA,[5]; 80.5 g ai/ha,21.3%
same,% Control of Brachiaria decumbens 28 DAA,[5]; 80.5 g ai/ha,18.8%
CCc1cccc(C)c1N(COC(C)C)C(=O)CCl [propisochlor],% Control - Cenchrus echinatus 7 DAA,[4]; 540.0 g ai/ha,91.3%
same,% Control - Cenchrus echinatus 28 DAA,[4]; 540.0 g ai/ha,75.8%
same,% Control - Cenchrus echinatus 35 DAA,[4]; 540.0 g ai/ha,65.0%
same,% Control - Cenchrus echinatus 7 DAA,[4]; 1080.0 g ai/ha,95.3%
same,% Control - Cenchrus echinatus 28 DAA,[4]; 1080.0 g ai/ha,85.0%
same,% Control - Cenchrus echinatus 35 DAA,[4]; 1080.0 g ai/ha,80.0%
same,% Weed control 35 DAA Ipomoea hederifolia,[2]; 525 g ai/ha,26.25%
same,% Weed control 35 DAA Ipomoea hederifolia,[2]; 675 g ai/ha,27%
same,% Weed control 35 DAA Spermacoce verticillata,[3]; 525 g ai/ha,92.75%
same,% Weed control 35 DAA Spermacoce verticillata,[3]; 675 g ai/ha,95.75%
same,% Control of Brachiaria decumbens 7 DAA,[5]; 540 g ai/ha,89.5%
same,% Control of Brachiaria decumbens 14 DAA,[5]; 540 g ai/ha,85.8%
same,% Control of Brachiaria decumbens 21 DAA,[5]; 540 g ai/ha,78.8%
same,% Control of Brachiaria decumbens 28 DAA,[5]; 540 g ai/ha,70%
same,% Control of Brachiaria decumbens 7 DAA,[5]; 1080 g ai/ha,92.8%
same,% Control of Brachiaria decumbens 14 DAA,[5]; 1080 g ai/ha,91%
same,% Control of Brachiaria decumbens 21 DAA,[5]; 1080 g ai/ha,85%
same,% Control of Brachiaria decumbens 28 DAA,[5]; 1080 g ai/ha,76.3%
same,% Control of Ipomoea grandifolia 7 DAA,[6]; 540 g ai/ha,81.3%
same,% Control of Ipomoea grandifolia 14 DAA,[6]; 540 g ai/ha,87.0%
same,% Control of Ipomoea grandifolia 21 DAA,[6]; 540 g ai/ha,87.5%
same,% Control of Ipomoea grandifolia 28 DAA,[6]; 540 g ai/ha,91.3%
same,% Control of Ipomoea grandifolia 35 DAA,[6]; 540 g ai/ha,91.8%
same,% Control of Brachiaria plantaginea 35 DAA,[1]; 1200 g ai/ha,84.50%
same,% Control 35 DAA Brachiaria plantaginea,[1]; 1200 g ai/ha,84.50%
